Assay in all cases: MIC by agar-dilution technique, Diagnostic Sensitivity Test
Format in all cases: cell-based

One assay has as its system S. aureus Oxford. The note with it: Staphylococcus aureus, inoculum 10^4 CFU/spot, read-out: minimum inhibitory concentration (MIC). An excerpt:
(§1) The following results were obtained for representative compounds on a standard in vitro test system using Diagnostic Sensitivity Test. The antibacterial activity is described in terms of the minimum inhibitory concentration (MIC) determined by the agar-dilution technique with an inoculum size of 10^4 CFU/spot.

Another assay deals with E. coli DCO. The conditions noted are these: Escherichia coli, inoculum 10^4 CFU/spot, read-out: minimum inhibitory concentration (MIC).
From the text: as §1

The test system of another assay is P. morganii I + 001. The note with it: Morganella morganii, inoculum 10^4 CFU/spot, read-out: minimum inhibitory concentration (MIC).
From the text: as §1

The test system of assay [1] is Enterobacter cloacae P99-. The conditions noted are these: P99, read-out: minimum inhibitory concentration (MIC).
From the text: as §1

For the next assay, the system named is B. fragilis AMP S. The conditions noted are these: Bacteroides fragilis, inoculum 10^4 CFU/spot, read-out: minimum inhibitory concentration (MIC).
From the text: as §1

Structures can show the parent of a compound that is named as a salt.

Consider `C[C@@H](O)[C@H]1C(=O)N2C(C(=O)O)=C(S[C@@H]3CN[C@H](C(=O)Nc4nc(C(=O)O)cs4)C3)[C@H](C)[C@H]12` [Example 2, (1R,5S,6S,8R,2'S,4'S)-2-(2-(4-Carboxy-2-thiazolylcarbamoyl)pyrrolidin-4-ylthio)-6-(1-hydroxyethyl)71-methylcarbapenem-3-carboxylic acid, disodium salt], for which the MIC in the assay with S. aureus Oxford came out at 0.25 µg/mL; in the assay with E. coli DCO it was 0.03 µg/mL; in the assay with P. morganii I + 001, 0.03 µg/mL; in assay [1], 0.03 µg/mL; in the assay with B. fragilis AMP S, 0.5 µg/mL.

For the origin of these results see patent publication US5527793A, “Antibiotic carbapenem compounds” (Zeneca Limited, priority 1992, dated 1996).
